From US20060142591A1, “DAPH analogs and inhibition of protein aggregation” (priority 2004, published 2006)

What was measured:
[1] = target: Aβ42Total (Homo sapiens, UniProt P05067); assay: Reversal of aggregated Aβ42Total fibrils, ThT assay; assay type: biochemical; settings: depends on the concentration of compound
Procedure: Aβ42Total is unfractionated synthetic Aβ42 that was dissolved in water at pH 8-9 by using NH3 or at pH 10-11 by using dilute NaOH and stored at −40° C. Experimental samples were prepared by diluting the stock solution of Aβ42 to 10 μM (unless noted otherwise) in Tyrode's solution 2 mM Ca (150 mM NaCl/3 mM KCl/10 mM Hepes, pH 7.4/2 mM CaCl2/10 mM D-glucose, pH 7.4/0.02% Na azide). The synthetic Aβ42 was dissolved in water at a pH of ˜8 and then stored at −20° C. until diluted into Tyrode's Solution/2 mM Ca (pH 7.4). This preparation is “Aβ42Total”. To aggregate for use in experiments, it was preincubated for 24 or 48 h at 37° C. without stirring. To measure β-sheet formation, ThT was added to protein or peptide reaction mixtures, such as Aβ samples or NM aggregation, NM disaggregation or NM seed reaction mixtures following incubation and fluorescent measurements were read according to standard procedures. […] ThT fluorescence is measured at room temperature (e.g., in a Fluoroskan II at […] or a FLUOstar Optima plate-reader (BMG Lab Technologies, Durham, N.C.) at Ex=440 nm and Em=480 nm). The ThT fluorescence spectrum is measured in an spectrofluorimeter (e.g., f4500, Hitachi, Tokyo) at Ex=435 nm and Em=450-550 nm. Fibrils of aggregated Aβ42Total give a strong ThT fluorescence signal, indicating high β-sheet content.

[2] = target: amyloid β (Aβ) fibers (Homo sapiens, UniProt P05067); settings: Blanchard et al., PNAS 101:14326-14332, 2004; cited from earlier work
amyloid β (Aβ) fibers, sequence (P05067 672-713 limits assumed): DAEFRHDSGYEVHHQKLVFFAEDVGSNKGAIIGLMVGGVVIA

[3] = target: Aβ4230k (Homo sapiens, UniProt P05067); assay: Coincubation with seedless Aβ42 (fibrillization), observed by EM; assay type: biochemical
Aβ4230k, sequence (P05067 672-713 limits assumed): as above

[4] = target: T1, Sup35 NM protein (Saccharomyces cerevisiae, UniProt P05453); assay: NM seed assay; assay type: biochemical, yeast; settings: disaggregated monomers used as seed at 2% or 5%
T1 construct: Soluble Sup35 NM protein (“NM”) was tested for aggregation
T1 sequence (P05453 1-253 limits assumed): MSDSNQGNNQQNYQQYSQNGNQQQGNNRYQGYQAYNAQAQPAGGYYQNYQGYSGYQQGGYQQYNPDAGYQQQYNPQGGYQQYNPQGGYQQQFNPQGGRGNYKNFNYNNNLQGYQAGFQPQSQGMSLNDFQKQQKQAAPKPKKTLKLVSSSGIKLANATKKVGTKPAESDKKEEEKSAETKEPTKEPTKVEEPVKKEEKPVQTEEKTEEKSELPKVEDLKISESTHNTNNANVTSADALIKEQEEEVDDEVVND
Procedure: Monomers of NM disaggregated by treatment with DAPH and DAPH analogs (see below) were tested for the ability to “seed” new NM fibers. Disaggregated monomers were used at 2% or 5% as described above for the NM aggregation assay.
(§1) Congo red was added to NM aggregation, NM disaggregation or NM seed reaction mixtures following incubation to a final concentration of 10 μM. After 30 min at 25° C., absorbances at 320, 477, and 540 nm were determined. Congo red dye binding was measured by using the equation [(OD540/25,295)−(OD477/46,306)] (Klunk et al., J. Histochem. Cytochem. 37:1273-1279, 1989) as described by Schirmer and Lindquist (Proc. Natl. Acad. Sci USA 94:13932-13937, 1997).

[5] = target: T2, NM protein fibers (Saccharomyces cerevisiae, UniProt P05453); assay: NM disaggregation assay; assay type: biochemical, yeast
T2 construct: Soluble Sup35 NM protein (“NM”) was tested for aggregation
T2 sequence (P05453 1-253 limits assumed): T1 sequence (P05453 1-253 limits assumed)
Procedure: For determining disaggregation of preformed aggregates, NM protein fibers (equivalent to 5 μM monomer) were incubated with DAPH (0-20 μM), DAPH analogs (0-20 μM) or DMSO (0-2% v/v). The assay mixture was incubated for 24 hr at 25° C., then tested for Congo Red or Thioflavin T binding to determine the extent of NM fibers remaining.
as §1
To measure β-sheet formation, ThT was added to protein or peptide reaction mixtures, such as Aβ samples or NM aggregation, NM disaggregation or NM seed reaction mixtures following incubation and fluorescent measurements were read according to standard procedures.
For measurement, each sample preferably is split into multiple wells of a 96-well black-bottom plate (e.g., catalog no. 35-3943, VWR International, Westchester, Pa.). ThT fluorescence is measured at room temperature (e.g., in a Fluoroskan II at […] or a FLUOstar Optima plate-reader (BMG Lab Technologies, Durham, N.C.) at Ex=440 nm and Em=480 nm). The ThT fluorescence spectrum is measured in an spectrofluorimeter (e.g., f4500, Hitachi, Tokyo) at Ex=435 nm and Em=450-550 nm.

[6] = target: T1, Sup35 NM protein; assay: NM aggregation assay; assay type: biochemical, yeast; settings: soluble NM 5 μM
Procedure: Soluble Sup35 NM protein (“NM”) was tested for aggregation in the presence of DAPH, DAPH analogs or vehicle control (DMSO). NM protein (5 μM) was aggregated in the presence of DAPH (0-20 μM), DAPH analogs (0-20 μM) or DMSO (0-2% v/v). The assay mixture was incubated for 24 hr at 25° C., then tested for Congo Red binding to determine the extent of NM fiber formation.
as §1
Soluble Sup35 NM (“NM”) at 5 μM was tested for aggregation in the presence of DAPH, DAPH analogs or vehicle control (DMSO). Aggregation of NM was inhibited by up to 100% (see FIG. 1). Inhibition of NM aggregation was concentration dependent.

[7] = target: Aβ fibrils (Homo sapiens, UniProt P05067); assay: Reversal of preformed Aβ fibrils, observed by EM; assay type: biochemical; settings: Aβ aggregated 24 h at pH 7.4, then another 24 h with equimolar compound; vehicle 1% DMSO
Aβ fibrils, sequence (P05067 672-713 limits assumed): as the sequence (P05067 672-713 limits assumed) above
Procedure: Aβ42Total is unfractionated synthetic Aβ42 that was dissolved in water at pH 8-9 by using NH3 or at pH 10-11 by using dilute NaOH and stored at −40° C. Experimental samples were prepared by diluting the stock solution of Aβ42 to 10 μM (unless noted otherwise) in Tyrode's solution 2 mM Ca (150 mM NaCl/3 mM KCl/10 mM Hepes, pH 7.4/2 mM CaCl2/10 mM D-glucose, pH 7.4/0.02% Na azide). The synthetic Aβ42 was dissolved in water at a pH of ˜8 and then stored at −20° C. until diluted into Tyrode's Solution/2 mM Ca (pH 7.4). This preparation is “Aβ42Total”. To aggregate for use in experiments, it was preincubated for 24 or 48 h at 37° C. without stirring. Negative-staining EM was used to visualize the kinetics and morphology of Aβ42 fibrillization over time, with and without the presence of DAPH analogs. Samples of 10 μM seedless Aβ42 (Aβ4230k) were incubated for a predetermined amount of time at 37° C. and vigorously vortex mixed immediately before and after incubation. Very small volumes, typically 5 μl, of each sample were absorbed for 2-4 min onto glow-discharged, carbon-coated, Formvar-filmed 400 mesh copper grids and gently wicked away with filter paper. […] Measurements were analyzed, and width-distribution histograms were produced by using EXCEL 98 (Microsoft). […]

[8] = tested on: RML strain of mouse scrapie; assay type: in vivo, CD1 mice
[9] = 1% brain homogenate incubated 48 hours with compound, lower doses of infectivity, log rank test

Aβ42Total, sequence (P05067 672-713 limits assumed): as the sequence (P05067 672-713 limits assumed) above

Row | Compound | time for reversal of the fibrils, as detected by the ThT assay [1] | disaggregation of amyloid β (Aβ) fibers [2] | elimination of higher-order structure, EM studies ([3]; 24 h incubation) | elimination of the usual fibrils, as observed by EM ([3]; coincubation of Aβ4230k with equimolar compound (10:10 μM), 1% DMSO) | ability of NM protein to reform NM fibers following disaggregation [4] | disaggregation of preformed NM fibers as compared to the DMSO control ([5]; preformed NM aggregates, FIGS. 2 and 3) | dissolution of NM fibers as measured by Congo Red binding ([5]; preformed NM fibers, FIG. 2) | dissolution of NM fibers as measured by ThT fluorescence ([5]; preformed NM fibers, FIG. 3) | effect on NM fiber assembly / NM aggregation (in words) [6] | inhibition of NM aggregation ([6]; compound 0-20 μM, 24 hr at 25° C., Congo Red binding, FIG. 1, concentration dependent) | reversal of aggregation of Aβ fibrils as determined by EM [7] | effect on survival / prion titers (in words) [8, 9] | effect of treatment at high doses of infectivity ([8]; high doses of infectivity) | median survival longer than DMSO controls ([8]; 1% brain homogenate incubated 48 hours with compound, lower doses of infectivity, CD1 mice n=4 per group, log rank test)
1 | O=C1NC(=O)c2cc(Nc3ccccc3)c(Nc3ccccc3)cc21 [DAPH, 4,5-dianilinophthalimide] | takes only very few minutes | can disaggregate amyloid β (Aβ) fibers | nearly complete elimination of higher-order structure | almost complete elimination of the usual fibrils | essentially unable to reform NM fibers | effective in disaggregation of preformed fibers | partially dissolve NM fibers | partially dissolve NM fibers | antagonizes NM fiber assembly | up to 100% | reversed the aggregation of the Aβ fibrils | did not significantly alter survival | not observed | 
2 | COc1ccc(Nc2cc3c(cc2Nc2ccc(OC)cc2)C(=O)NC3=O)cc1 [DAPH-12, 5,6-Bis-(4-methoxy-phenylamino)-isoindole-1,3-dione] | takes only very few minutes |  |  |  |  |  |  |  |  |  |  | reduction in prion titers |  | at least 60 days
